Experimental data published in PMC11209699 (ACS Omega, 2024).
“And” between values parts separate entries of the source, which are not always exact repeats. Identical values can stand only once. “Also recorded” adds a separate entry of the source.

Assays:
[1] = test system: MV-4–11 cells; assay: CCK-8 cell viability; type: cell-based; settings: Homo sapiens, MV4-11, 48 h, read-out: cytotoxicity (IC50) MV-4–11
[2] = test system: HeLa cells; assay: CCK-8 cell viability; type: cell-based; settings: Homo sapiens, 48 h, read-out: cytotoxicity (IC50) HeLa
[3] = test system: H929 cells; assay: CCK-8 cell viability; type: cell-based; settings: Homo sapiens, NCI-H929, 48 h, read-out: cytotoxicity (IC50) H929
[4] = test system: HL-60 cells; assay: CCK-8 cell viability; type: cell-based; settings: Homo sapiens, HL-60, 48 h, read-out: cytotoxicity (IC50) HL-60
[5] = test system: RS4;11 cells; assay: CCK-8 cell viability; type: cell-based; settings: Homo sapiens, RS4-11, 48 h, read-out: cytotoxicity (IC50) RS4;11
[6] = CCK-8 cell viability; type: cell-based; settings: human, HEK293T cells
[7] = molecular target: MCL-1 (Homo sapiens, UniProt Q07820); assay: fluorescence polarization; settings: for binding to MCL-1 (in words): tested up to 100 μM
MCL-1, sequence (Q07820 152-327): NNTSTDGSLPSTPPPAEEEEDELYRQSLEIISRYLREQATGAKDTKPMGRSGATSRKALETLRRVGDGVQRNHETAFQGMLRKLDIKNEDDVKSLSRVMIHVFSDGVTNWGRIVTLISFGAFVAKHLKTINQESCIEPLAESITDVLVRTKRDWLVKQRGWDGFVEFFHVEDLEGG

[8] = molecular target: BCL-2 (Homo sapiens, UniProt P10415); assay: fluorescence polarization; settings: FP assay
BCL-2, sequence (P10415 1-207): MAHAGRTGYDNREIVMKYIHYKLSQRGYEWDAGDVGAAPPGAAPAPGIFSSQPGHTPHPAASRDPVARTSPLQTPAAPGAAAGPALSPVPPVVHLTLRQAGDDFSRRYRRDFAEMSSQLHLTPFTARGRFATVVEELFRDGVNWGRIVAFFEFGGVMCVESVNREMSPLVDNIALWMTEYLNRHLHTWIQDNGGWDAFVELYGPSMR

[9] = test system: PARP and caspase-3 in H929 cells; assay: Western blot of PARP and caspase-3 cleavage; type: cell-based; settings: 5 to 40 μM, 24 h
[10] = stability in liver microsomes; type: in vitro ADME; settings: rat, pooled rat liver microsomes
[11] = test system: MV-4–11 xenograft mice; type: in vivo, mouse; settings: after 20 days treatment
[12] = test system: MV-4–11 xenograft mice; assay: in vivo antitumor study, MV-4–11 xenograft mouse model; settings: for effect on body weight after 20 days (in words): 90% confidence level vs vehicle
[13] = test system: MV-4–11 cells; assay: annexin V and PI double-staining flow cytometry; type: cell-based; settings: 24 h
[14] = stability in liver microsomes; type: in vitro ADME; settings: dog, pooled dog liver microsomes
[15] = molecular target: MCL-1/BIM interaction in H929 cells (Homo sapiens, UniProt Q07820); assay: coimmunoprecipitation; type: cell-based; settings: 10 μM, 10 h
MCL-1/BIM interaction in H929 cells, sequence (Q07820 whole entry): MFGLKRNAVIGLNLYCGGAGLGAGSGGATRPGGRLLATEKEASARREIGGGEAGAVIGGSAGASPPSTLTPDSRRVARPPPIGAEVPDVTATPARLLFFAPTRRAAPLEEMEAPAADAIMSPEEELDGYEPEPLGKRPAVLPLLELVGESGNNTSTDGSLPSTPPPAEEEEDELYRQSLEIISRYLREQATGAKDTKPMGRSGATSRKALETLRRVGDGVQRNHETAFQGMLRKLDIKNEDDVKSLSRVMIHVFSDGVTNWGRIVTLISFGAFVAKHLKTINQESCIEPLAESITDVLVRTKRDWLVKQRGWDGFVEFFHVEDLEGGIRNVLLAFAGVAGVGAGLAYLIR

[16] = stability in liver microsomes; type: in vitro ADME; settings: human
[17] = stability in liver microsomes; type: in vitro ADME; settings: monkey, pooled monkey liver microsomes
[18] = stability in GSH; type: in vitro ADME; settings: exposure to GSH for up to 2 h
[19] = test system: MV-4–11 cells; assay: kinetics study in cells; type: in vitro ADME; settings: GQN-B37-Me given to MV-4–11 cells at 40 μM, monitored over 8 h
[20] = molecular target: BCL-xL (Homo sapiens, UniProt Q07817); assay: fluorescence polarization; settings: FP assay, tested up to 100 μM
BCL-xL, sequence (Q07817 45-233): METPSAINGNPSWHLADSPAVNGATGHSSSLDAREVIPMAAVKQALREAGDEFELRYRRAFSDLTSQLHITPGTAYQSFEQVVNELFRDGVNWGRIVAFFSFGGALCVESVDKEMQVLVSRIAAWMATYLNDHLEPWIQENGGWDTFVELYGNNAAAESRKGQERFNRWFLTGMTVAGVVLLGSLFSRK

Row | Compound | IC50 [1] | IC50 [2] | IC50 [3] | IC50 [4] | IC50 [5] | IC50 at 48 h [6] | further results
1 | COC(=O)[C@H](Cc1c[nH]c2ccccc12)NC(=O)/C=C/c1cn(-c2cccc(Cl)c2)nc1-c1ccc(C2CCCCC2)cc1 [GQN-B33-Me, Methyl-(E)-(3-(1-(3-chlorophenyl)-3-(4-cyclohexylphenyl)-1H-pyrazol-4-yl)acryloyl)-L-tryptophanate] | > 20 µM | > 50 µM | 4.64 ± 0.01 µM | > 50 µM | > 20 µM | > 20 µM | 
2 | O=C(/C=C\c1cn(-c2ccccc2)nc1-c1ccc2ccccc2c1)Nc1ccc(C(=O)O)cc1 [LC126, (Z)-4-(3-(3-(Naphthalen-2-yl)-1-phenyl-1H-pyrazol-4-yl)acrylamido)benzoic Acid] |  |  |  |  |  |  | Ki ([7]; Ki for MCL-1 (text and Figure 2), FP assay): 13 µM and ~10 µM; Ki ([8]; Ki for BCL-2 (text and Figure 2)): 10 µM and ~10 µM
3 | COC(=O)[C@H](Cc1c[nH]c2ccccc12)NC(=O)/C=C/c1cn(-c2cccc(Cl)c2)nc1-c1ccc(O)cc1 [GQN-B37-Me, Methyl-(E)-(3-(1-(3-chlorophenyl)-3-(4-hydroxyphenyl)-1H-pyrazol-4-yl)acryloyl)-L-tryptophanate] | 5.57 ± 0.09 µM | > 20 µM | 3.71 ± 0.33 µM | > 20 µM | 15.9 ± 0.98 µM | > 20 µM | cleavage of full-length PARP (116 to 89 kDa) [9]: dose-dependent cleavage; half-life at 1.4 μM [10]: 1.92 h; binding to MCL-1 (in words) ([7]; FP assay): complete loss of binding; lesions in liver, kidney and heart (HE staining) ([11]; 12.5 and 50 mg/kg): no evidence of lesions; necrosis of tumor tissues (HE staining) ([11]; 12.5 and 50 mg/kg): dose-dependent necrosis of tumor tissues; level of proliferation in tumor tissues (Ki-67) ([11]; compared to the blank group): significantly reduced; tumor growth inhibition on day 20 ([12]; 12.5 mg/kg i.p. every 2 days for 20 days): 30%; effect on body weight after 20 days (in words) ([12]; 12.5 mg/kg i.p. every 2 days): did not cause significant body weight loss; tumor growth inhibition on day 20 ([12]; 50 mg/kg i.p. every 2 days for 20 days): 43%; effect on body weight after 20 days (in words) ([12]; 50 mg/kg i.p. every 2 days): affected body weight; induction of late apoptosis (in words) ([13]; doses ranging from 1 to 40 μM): induced late apoptosis in a clear dose-dependent manner; half-life at 1.4 μM [14]: 1.93 h; disruption of the MCL-1/BIM interaction [15]: disrupts the MCL-1/BIM interaction considerably; half-life at 1.4 μM [16]: 0.77 h; half-life at 1.4 μM [17]: 0.58 h; stability following incubation with GSH (in words) [18]: basically intact
4 | O=C(/C=C/c1cn(-c2ccccc2)nc1-c1ccc2ccccc2c1)N[C@@H](Cc1c[nH]c2ccccc12)C(=O)O [GQN-B18-E, (E)-(3-(3-(Naphthalen-2-yl)-1-phenyl-1H-pyrazol-4-yl)acryloyl)-L-tryptophan] | > 50 µM | > 50 µM | > 50 µM | > 20 µM | > 20 µM | > 20 µM | 
5 | COC(=O)[C@H](Cc1c[nH]c2ccccc12)NC(=O)/C=C/c1cn(-c2cccc(Cl)c2)nc1-c1ccc(N2CCOCC2)cc1 [GQN-B36-Me, Methyl-(E)-(3-(1-(3-chlorophenyl)-3-(4-morpholinophenyl)-1H-pyrazol-4-yl)acryloyl)-L-tryptophanate] | > 20 µM | > 50 µM | > 20 µM | > 20 µM | > 20 µM | > 20 µM | 
6 | O=C(/C=C/c1cn(-c2cccc(Cl)c2)nc1-c1ccc(N2CCOCC2)cc1)N[C@@H](Cc1c[nH]c2ccccc12)C(=O)O [GQN-B36-E, (E)-(3-(1-(3-Chlorophenyl)-3-(4-morpholinophenyl)-1H-pyrazol-4-yl)acryloyl)-L-tryptophan] | > 50 µM | > 50 µM | > 50 µM | > 50 µM | > 50 µM | > 20 µM | 
7 | O=C(/C=C/c1cn(-c2cccc(Cl)c2)nc1-c1ccc(C2CCCCC2)cc1)N[C@@H](Cc1c[nH]c2ccccc12)C(=O)O [GQN-B33-E, (E)-(3-(1-(3-Chlorophenyl)-3-(4-cyclohexylphenyl)-1H-pyrazol-4-yl)acryloyl)-L-tryptophan] | > 20 µM | > 50 µM | > 50 µM | > 50 µM | > 20 µM | > 20 µM | 
8 | O=C(/C=C/c1cn(-c2cccc(Cl)c2)nc1-c1ccc(O)cc1)N[C@@H](Cc1c[nH]c2ccccc12)C(=O)O [GQN-B37-E, (E)-(3-(1-(3-Chlorophenyl)-3-(4-hydroxyphenyl)-1H-pyrazol-4-yl)acryloyl)-L-tryptophan] | > 50 µM | > 50 µM | > 50 µM | > 50 µM | > 50 µM | > 20 µM | ligand efficiency (LE) ([7]; binding energy divided by the number of heavy atoms, MCL-1): 0.22 kcal/mol; time at which intracellular GQN-B37-E reached a peak [19]: 3 h; binding to BCL-XL (in words) [20]: without apparent binding; binding to BCL-2 (in words) ([8]; tested up to 100 μM): without apparent binding
9 | Nc1ccc(-c2nn(-c3cccc(Cl)c3)cc2/C=C/C(=O)N[C@@H](Cc2c[nH]c3ccccc23)C(=O)O)cc1 [GQN-B35-E, (E)-(3-(3-(4-Aminophenyl)-1-(3-chlorophenyl)-1H-pyrazol-4-yl)acryloyl)-L-tryptophan] | > 50 µM | > 50 µM | > 50 µM | > 50 µM | > 50 µM | > 20 µM | 
10 | CC1(C)CCC(CN2CCN(c3ccc(C(=O)NS(=O)(=O)c4ccc(NCC5CCOCC5)c([N+](=O)[O-])c4)c(Oc4cnc5[nH]ccc5c4)c3)CC2)=C(c2ccc(Cl)cc2)C1 [ABT-199, reference compound] |  |  |  |  |  |  | binding to MCL-1 (in words) ([7]; FP assay): no obvious binding
11 | Cc1c2c(nn1C)CSCc1cc(n(C)n1)CSc1cc(c3ccccc3c1)OCCCc1c(C(=O)O)n(C)c3c-2c(Cl)ccc13 [AZD5991, reference compound] | < 0.01 µM |  | 0.05 ± 0.01 µM |  |  | > 20 µM | tumor growth inhibition on day 20 ([12]; 10 mg/kg i.p. every 2 days for 20 days): 56%; effect on body weight after 20 days (in words) ([12]; 10 mg/kg i.p. every 2 days): caused significant body weight loss; cells in quadrant Q3-2 (late apoptosis, annexin V (+) and PI (+)) ([13]; 1 μM, MV-4–11 cells): ~75%
12 | COC(=O)[C@H](Cc1c[nH]c2ccccc12)NC(=O)/C=C/c1cn(-c2cccc(Cl)c2)nc1-c1ccc(N)cc1 [GQN-B35-Me, Methyl-(E)-(3-(3-(4-aminophenyl)-1-(3-chlorophenyl)-1H-pyrazol-4-yl)acryloyl)-L-tryptophanate] | 20.52 ± 0.12 µM | > 50 µM | 3.89 ± 0.07 µM | > 20 µM | > 20 µM | > 20 µM | 
13 | COC(=O)[C@H](Cc1c[nH]c2ccccc12)NC(=O)/C=C/c1cn(-c2ccccc2)nc1-c1ccc2ccccc2c1 [GQN-B18-Me, Methyl-(E)-(3-(3-(naphthalen-2-yl)-1-phenyl-1H-pyrazol-4-yl)acryloyl)-L-tryptophanate] | > 20 µM | > 20 µM | 7.97 ± 1.01 µM | > 20 µM | > 20 µM | > 20 µM | binding to MCL-1 (in words) ([7]; FP assay): totally abolished; also recorded: complete loss of binding
